Measured values: BindingDB's records for doi:10.1021/jm000160l (University of Maryland, 2000)

What was measured:
[1] = biological target: Glyoxalase I (Saccharomyces cerevisiae) (UniProt P50107); test: Binding affinity on yeast glyoxalase I (GlxI) was determined
[2] = biological target: Glyoxalase I (Pseudomonas putida); test: Binding affinity on Pseudomonas putida glyoxalase I (GlxI) was determined

Glyoxalase I (Saccharomyces cerevisiae), sequence (P50107 whole entry, looked up): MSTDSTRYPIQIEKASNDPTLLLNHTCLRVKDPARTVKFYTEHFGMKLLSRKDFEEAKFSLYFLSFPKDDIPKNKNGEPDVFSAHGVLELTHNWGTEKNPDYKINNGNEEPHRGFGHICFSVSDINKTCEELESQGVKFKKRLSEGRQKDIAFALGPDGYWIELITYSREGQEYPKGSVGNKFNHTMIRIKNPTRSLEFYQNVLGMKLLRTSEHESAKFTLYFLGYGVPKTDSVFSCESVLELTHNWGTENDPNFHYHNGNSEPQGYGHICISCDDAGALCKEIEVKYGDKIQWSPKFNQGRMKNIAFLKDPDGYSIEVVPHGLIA

Structure (SMILES): CN(O)C(=O)SC[C@H](NC(=O)CC[C@H](N)C(=O)O)C(=O)NCC(=O)O [S-(N-methyl-N-hydroxycarbamoyl)glutathione]
- Ki [1]: 68 µM
- Ki [2]: 86 µM
